Test results as given in patent publication US20240368174A1, “Antiviral Heterocyclic Compounds” (Enanta Pharmaceuticals, Inc., priority 2023, published 2024).

The compounds below were run on HMPV clinical isolate A2 strain TN 94-49 (assay: HMPV antiviral assay, Method 2 (LLC-MK2 cells with CP-100-356, ATP-Lite)). Details: human metapneumovirus, 168 h; hMPV A2 TN/94-49, LLC-MK2 cells with 4 μM CP-100-356, 7 days, ATP-Lite.
Assay type: cell-based
Summary of the method: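 LLC-MK2 rhesus kidney cells (5,000/well) infected in suspension with HMPV A2 TN 94-49 at MOI 0.16, in serum-free medium with final 2 μg/mL TPCK-trypsin and 2 μM CP-100-356. Compounds tested in duplicate from 200 nM, 2.5-fold, 10 points; 7 days at 37 °C. Cell health by ATP-Lite luminescence; EC50 by four-parameter fit.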
COc1cc(C(=O)NC[C@](O)(c2cc3c(c(-c4ccnc(C)c4F)n2)OC[C@]3(C)C(N)=O)C2CC2)cc2cn(C3CC3)nc12 [Example 817] showed an EC50 of less than 200 nM. COc1cc(-c2nc([C@@](O)(CNC(=O)c3cc(OC)c4nn(C5CC5)cc4c3)C(F)(F)F)cc3c2OC[C@]3(C)C(N)=O)c(F)cn1 [Example 831] showed an EC50 greater than 200 nM. In the case of COc1cc(-c2nc([C@@](O)(CNC(=O)c3cc(OC)c4nn(C5CC5)cc4c3)C3CC3)cc3c2OC[C@]3(C)C(N)=O)ccn1 [Example 832], the EC50 is reported as greater than 200 nM. COc1cccc2c1cnn2-c1nc([C@@](O)(CNC(=O)c2cc(OC)c3nn(C4CC4)cc3c2)C2CC2)cc2c1OC[C@]2(C)C(N)=O [Example 833] gave an EC50 greater than 200 nM. Compound COc1cc(-c2nc([C@@](O)(CNC(=O)c3cc(OC)c4nn(C5CC5)cc4c3)C3CC3)cc3c2OC[C@]3(C)C(N)=O)c(Cl)cn1 [Example 834] has an EC50 greater than 200 nM. With COc1cc(-c2nc([C@@](O)(CNC(=O)c3cc(OC)c4nn(C5CC5)cc4c3)C(F)(F)F)cc3c2OC[C@]3(C)C(N)=O)c(Cl)cn1 [Example 835] the EC50 was greater than 200 nM. For COc1cc(C(=O)NC[C@](O)(c2cc3c(c(-n4ncc5c(F)cccc54)n2)OC[C@]3(C)C(N)=O)C(F)(F)F)cc2oc(C3CC3)nc12 [Example 836], the EC50 was greater than 200 nM. Work on COc1cc(C(=O)NC[C@](O)(c2cc3c(c(-c4ccn5nc(C)cc5c4Cl)n2)OC[C@]3(C)C(N)=O)C2CC2)cc2cn(C3CC3)nc12 [Example 837] yielded an EC50 greater than 200 nM. COc1cc(C(=O)NC[C@](O)(c2cc3c(c(-c4ccn5nc(C)cc5c4)n2)OC[C@]3(C)C(N)=O)C2CC2)cc2cn(C3CC3)nc12 [Example 838] was tested, and the EC50 was greater than 200 nM. COc1cccc2c1ccn2-c1nc([C@@](O)(CNC(=O)c2cc(OC)c3nn(C4CC4)cc3c2)C2CC2)cc2c1OC[C@]2(C)C(N)=O [Example 839] showed an EC50 of less than 200 nM. COc1cc(C(=O)NC[C@@](O)(c2cc3c(c(-n4ccc5cnccc54)n2)OC[C@]3(C)C(N)=O)C2CC2)cc2cn(C3CC3)nc12 [Example 840] gave an EC50 greater than 200 nM. Work on COc1cc(C(=O)NC[C@](O)(c2cc3c(c(-n4ccc5cnccc54)n2)OC[C@]3(C)C(N)=O)C2CC2)cc2cn(C3CC3)nc12 [Example 841] yielded an EC50 of less than 200 nM. In the case of COc1cc(C(=O)NC[C@](O)(c2cc3c(c(-n4ccc5ccccc54)n2)OC[C@]3(C)C(N)=O)C(F)(F)F)cc2cn(C(F)F)nc12 [Example 843], the EC50 is reported as less than 200 nM. COc1cc(C(=O)NC[C@](O)(c2cc3c(c(-c4cc(C(F)(F)F)ncc4F)n2)OC[C@]3(C)C(N)=O)C(F)(F)F)cc2cn(C3CC3)nc12 [Example 845] was tested, and the EC50 was less than 200 nM. Work on COc1cc(C(=O)NC[C@](O)(c2cc3c(c(-n4ccc5c(C(F)(F)F)cccc54)n2)OC[C@]3(C)C(N)=O)C2CC2)cc2cn(C3CC3)nc12 [Example 869] yielded an EC50 greater than 200 nM. In the case of COc1cc(C(=O)NCC(O)(c2cc3c(c(-c4cc(C(F)(F)F)ncc4Cl)n2)OC[C@]3(C)C(N)=O)C2CC2)cc2cn(C3CC3)nc12 (some centres unmarked) [Example 870], the EC50 is reported as greater than 200 nM. Compound COc1cc(C(=O)NC[C@](O)(c2cc3c(c(-c4ccnc(C)c4Cl)n2)OC[C@]3(C)C(N)=O)C2CC2)cc2cn(C3CC3)nc12 [Example 871] has an EC50 of less than 200 nM. For COc1nccc(-c2nc([C@](O)(CNC(=O)c3cc(OC)c4nn(C5CC5)cc4c3)c3cccc(F)c3)cc3c2OC[C@]3(C)C(N)=O)c1Cl [Example 876], the EC50 was greater than 200 nM. Work on COc1nccc(-c2nc([C@@](O)(CNC(=O)c3cc(OC)c4nn(C5CC5)cc4c3)c3cccc(F)c3)cc3c2OC[C@]3(C)C(N)=O)c1Cl [Example 877] yielded an EC50 of less than 200 nM. For COc1cc(C(=O)NC[C@](O)(c2cc3c(c(-c4ccnc(C)c4Cl)n2)OC[C@]3(C)C(N)=O)C(F)(F)F)cc2cn(C3CC3)nc12 [Example 883], the EC50 was greater than 200 nM. COc1nccc(-c2nc([C@@](O)(CNC(=O)c3cc(OC)n4nc(C5CC5)cc4c3)C(C)C)cc3c2OC[C@]3(C)C(N)=O)c1Cl [Example 890] was tested, and the EC50 was greater than 200 nM. For COc1nccc(-c2nc([C@@](O)(CNC(=O)c3cc(OC)c4nc(C5CC5)cn4c3)C(C)C)cc3c2OC[C@]3(C)C(N)=O)c1Cl [Example 891], the EC50 was greater than 200 nM. Work on COc1nccc(-c2nc([C@@](O)(CNC(=O)c3cc(OC4CC4)c4nn(C5(F)CC5)cc4c3)C(C)C)cc3c2OC[C@]3(C)C(N)=O)c1Cl [Example 892] yielded an EC50 of less than 200 nM. COc1nccc(-c2nc([C@@](O)(CNC(=O)c3cc(OC4CC4)c4nn(C5CC5)cc4c3)C(C)C)cc3c2OC[C@]3(C)C(N)=O)c1Cl [Example 893] was tested, and the EC50 was less than 200 nM. COc1nccc(-c2nc([C@@](O)(CNC(=O)c3cc(OC4CC4)c4nn(C(F)F)cc4c3)C(C)C)cc3c2OC[C@]3(C)C(N)=O)c1Cl [Example 894] was tested, and the EC50 was greater than 200 nM. COc1nccc(-c2nc([C@@](O)(CNC(=O)c3cc(OC)c4nn(C5(F)CC5)cc4c3)C3CC(F)(F)C3)cc3c2OC[C@]3(C)C(N)=O)c1Cl [Example 896] gave an EC50 of less than 200 nM. COc1nccc(-c2nc([C@@](O)(CNC(=O)c3cc(OC)c4nc(C5CC5)oc4c3)C3CC(F)(F)C3)cc3c2OC[C@]3(C)C(N)=O)c1Cl [Example 897] was tested, and the EC50 was greater than 200 nM. Compound COc1nccc(-c2nc([C@@](O)(CNC(=O)c3cc(OC4CC4)c4nn(C(F)F)cc4c3)C3CC(F)(F)C3)cc3c2OC[C@]3(C)C(N)=O)c1Cl [Example 898] has an EC50 greater than 200 nM. With COc1cc(C(=O)NC[C@](O)(c2cc3c(c(-n4ncc5c(F)cccc54)n2)OC[C@]3(C)C(N)=O)C2CC2)cc2cc(Cl)c(C)nc12 [Example 899] the EC50 was greater than 200 nM. In the case of COc1cc(-c2nc([C@@](O)(CNC(=O)c3cc(OC4CC4)c4nn(C5CC5)cc4c3)c3ccccc3)cc3c2OC[C@]3(C)C(N)=O)c(F)cn1 [Example 900], the EC50 is reported as greater than 200 nM. For COc1nccc(-c2nc([C@@](O)(CNC(=O)c3cc(OC4CC4)c4nn(C(F)F)cc4c3)c3ccccc3)cc3c2OC[C@]3(C)C(N)=O)c1Cl [Example 901], the EC50 was less than 200 nM. In the case of COc1nccc(-c2nc([C@@](O)(CNC(=O)c3cc(OC4CC4)c4nn(C(F)F)cc4c3)c3cccc(F)c3)cc3c2OC[C@]3(C)C(N)=O)c1Cl [Example 902], the EC50 is reported as greater than 200 nM. Compound COc1cc(C(=O)NC[C@](O)(c2cc3c(c(-c4ccnc(C5CCOCC5)c4Cl)n2)OC[C@]3(C)C(N)=O)C2CC2)cc2cn(C3CC3)nc12 [Example 903] has an EC50 greater than 200 nM. For COc1cc(C(=O)NC[C@](O)(c2cc3c(c(-c4ccnc(C5CCOCC5)c4Cl)n2)OC[C@]3(C)C(N)=O)C2CC2)cc2cn(C(F)F)nc12 [Example 904], the EC50 was greater than 200 nM. Work on COc1cc(C(=O)NC[C@](O)(c2cc3c(c(-c4ccnc(C5CCOCC5)c4Cl)n2)OC[C@]3(C)C(N)=O)C2CC2)cc2cn(C3(F)CC3)nc12 [Example 905] yielded an EC50 greater than 200 nM. With COc1cc(C(=O)NC[C@](O)(c2cc3c(c(-c4ccnc(C5CCOCC5)c4Cl)n2)OC[C@]3(C)C(N)=O)C2CC2)cc2oc(C3CC3)nc12 [Example 906] the EC50 was greater than 200 nM. COc1cc(C(=O)NC[C@](O)(c2cc3c(c(-c4ccnc(C(C)C)c4Cl)n2)OC[C@]3(C)C(N)=O)C2CC2)cc2cn(C(F)F)nc12 [Example 907] was tested, and the EC50 was greater than 200 nM. For COc1cc(C(=O)NC[C@](O)(c2cc3c(c(-c4ccnc(C(C)C)c4Cl)n2)OC[C@]3(C)C(N)=O)C2CC2)cc2cn(C3(F)CC3)nc12 [Example 908], the EC50 was greater than 200 nM. COc1cc(C(=O)NC[C@](O)(c2cc3c(c(-c4ccnc(C(C)C)c4Cl)n2)OC[C@]3(C)C(N)=O)C2CC2)cc2oc(C3CC3)nc12 [Example 909] gave an EC50 greater than 200 nM. COc1cc(C(=O)NC[C@](O)(c2cc3c(c(-c4ccnc(C(C)C)c4Cl)n2)OC[C@]3(C)C(N)=O)C2CC2)cc2cc(C3CC3)nn12 [Example 910] showed an EC50 greater than 200 nM. Work on COc1cc(C(=O)NC[C@](O)(c2cc3c(c(-c4ccnc(C(C)C)c4Cl)n2)OC[C@]3(C)C(N)=O)C2CC2)cn2cc(C3CC3)nc12 [Example 911] yielded an EC50 greater than 200 nM. CC(C)c1nccc(-c2nc([C@@](O)(CNC(=O)c3cc(OC4CC4)c4nn(C5(F)CC5)cc4c3)C3CC3)cc3c2OC[C@]3(C)C(N)=O)c1Cl [Example 912] gave an EC50 greater than 200 nM. CC(C)c1nccc(-c2nc([C@@](O)(CNC(=O)c3cc(OC4CC4)c4nn(C5CC5)cc4c3)C3CC3)cc3c2OC[C@]3(C)C(N)=O)c1Cl [Example 913] gave an EC50 greater than 200 nM. With CC(C)c1nccc(-c2nc([C@@](O)(CNC(=O)c3cc(OC4CC4)c4nn(C(F)F)cc4c3)C3CC3)cc3c2OC[C@]3(C)C(N)=O)c1Cl [Example 914] the EC50 was greater than 200 nM.
